Test results taken from patent US4556660A, “N-(Bicyclic heterocyclyl)-4-piperidinamines” (Janssen Pharmaceutica N.V., priority 1983, dated 1985).
Like-named read-outs stand apart in the source and are kept apart here.

Columns and labels:
[1] = tested on: compound 48/80-induced lethality; assay: Protection of rats from compound 48/80-induced lethality; assay type: in vivo, Male rats of an inbred Wistar strain; conditions: Rattus norvegicus, 4 h, read-out: compound 48/80 lethality test rats-ED50
Protocol: Protection of rats from compound 48/80-induced lethality
The protection from compound 48/80-induced lethal circulatory collapse appears to be a simple way of evaluating quantitatively the antihistaminic activity of test compounds. Male rats of an inbred Wistar strain, weighing 240-260 g were used in the experiment. After overnight starvation the rats were transferred to conditioned laboratories (temp.=21±1° C., relative humidity-65±5%).
The rats were treated subcutaneously or orally with a test compound or with the solvent (NaCl solution, 0.9%). […] Survival after 4 hours is therefore considered to be a safe criterion of a protective effect of drug administration.
The ED50 -values of the compounds of formula (I) and the intermediates of formula (XVIII) are listed in the first column of table 1 and table 2. Said ED50 -values are the values in mg/kg body weight at which the tested compounds protect 50% of the tested animals against compound 48/80-induced lethality.

[2] = tested on: serotonin; compound 48/80-induced gastric lesions; assay: Antagonistic activity on the effects of serotonin in the gastric lesion test (lesions induced by compound 48/80); assay type: in vivo, Male rats of a Wistar inbred strain
Protocol: Antagonistic activity on the effects of serotonin in the gastric lesion test
Male rats of a Wistar inbred strain, weighing 220-250 g, were starved overnight, water being available ad libitum. The test compounds were administered orally as a solution or as a suspension in aqueous medium. A control rat and a "blank" rat received the test compound. One hour later 5-[4-(diphenylmethyl)-1-piperazinylmethyl]-1-methyl-1H-benzimidazole-2-methanol was administered subcutaneously to all rats at the dose of 2.5 mg/kg.
Four hours after the intravenous injection of compound 48/80, the rats were decapitated and the stomachs were removed. Subsequently the stomachs were inspected for distension and contents (blood, fluid, food) and thoroughly rinsed. The macroscopic lesions were scored from 0 to +++, 0 corresponding to complete absence of visible lesions and the highest score corresponding to reddish rough patches covering more than half the glandular area.

[3] = Rattus norvegicus, po; read-out: gastric lesion test ED50
[4] = Rattus norvegicus, po, read-out: gastric lesion test ED50

c1ccc(Cn2c(NC3CCN(CCNc4ncccn4)CC3)nc3ccccc32)cc1 [Compound 65, 1-(phenylmethyl)-N-[1-[2-[(2-pyrimidinyl)amino]ethyl]-4-piperidinyl]-1H-benzimidazol-2-amine] gave an ED50 [1] of 0.08 mg/kg and an ED50 [2, 3] of 0.31 mg/kg.
Cc1ccc(Cn2c(NC3CCN(CCNc4ncccn4)CC3)nc3ccccc32)cc1 [Compound 67, 1-[(4-methylphenyl)methyl]-N-[1-[2-[(2-pyrimidinyl)amino]ethyl]-4-piperidinyl]-1H-benzimidazol-2-amine] was tested, and the ED50 [1] was 0.16 mg/kg and the ED50 [2, 4] was 0.63 mg/kg.
Clc1ccc(Cn2c(NC3CCN(CCNc4ncccn4)CC3)nc3ccccc32)cc1 [Compound 68, 1-[(4-chlorophenyl)methyl]-N-[1-[2-(2-pyrimidinylamino)ethyl]-4-piperidinyl]-1H-benzimidazol-2-amine] gave an ED50 [1] of 0.16 mg/kg and an ED50 [2, 3] of 2.5 mg/kg.
For COc1ccc(Cn2c(NC3CCN(CCNc4ncccn4)CC3)nc3ccccc32)cc1 [Compound 69, 1-[(4-methoxyphenyl)methyl]-N-[1-[2-(2-pyrimidinylamino)ethyl]-4-piperidinyl]-1H-benzimidazol-2-amine], the ED50 [1] was 0.31 mg/kg and the ED50 [2, 3] was 2.5 mg/kg.
O=C(O)/C=C/C(=O)O.O=C(O)/C=C/C(=O)O.c1cnc(NCCN2CCC(Nc3nc4ccccc4n3Cc3cscn3)CC2)nc1 [Compound 72, N-[1-[2-(2-pyrimidinylamino)ethyl]-4-piperidinyl]-1-(4-thiazolylmethyl)-1H-benzimidazol-2-amine (E)-2-butenedioate (1:2)] showed an ED50 [1] of 0.02 mg/kg and an ED50 [2, 4] of 0.08 mg/kg.
Oc1ccc(Cn2c(NC3CCN(CCNc4ncccn4)CC3)nc3ccccc32)cc1 [Compound 73, 4-[[2-[[1-[2-(2-pyrimidinylamino)ethyl]-4-piperidinyl]amino]-1H-benzimidazol-1-yl]methyl]phenol] was tested, and the ED50 [1] was 2.5 mg/kg and the ED50 [2, 3] was 2.5 mg/kg.
In the case of CN(c1nc2ccccc2n1Cc1ccc(F)cc1)C1CCN(CCNc2ncccn2)CC1 [Compound 75], the ED50 [1] was 0.08 mg/kg and the ED50 [2, 4] was 0.63 mg/kg.
With Fc1ccc(Cn2c(NC3CCN(CCOc4ccc5ccccc5n4)CC3)nc3ccccc32)cc1 [Compound 77, 1-[(4-fluorophenyl)methyl]-N-[1-[2-(2-quinolinyloxy)ethyl]-4-piperidinyl]-1H-benzimidazol-2-amine] the ED50 [1] was 1.25 mg/kg and the ED50 [2, 3] was 2.5 mg/kg.
For CSc1nccc(OCCN2CCC(Nc3nc4ccccc4n3Cc3ccc(F)cc3)CC2)n1 [Compound 79, 1-[(4-fluorophenyl)methyl]-N-[1-[2-[[2-(methylthio)-4-pyrimidinyl]oxy]ethyl]-4-piperidinyl]-1H-benzimidazol-2-amine], the ED50 [1] was 0.16 mg/kg and the ED50 [2, 3] was 2.5 mg/kg.
Compound Fc1ccc(Cn2c(NC3CCN(CCOc4ncccn4)CC3)nc3ccccc32)cc1 [Compound 81, 1-[(4-fluorophenyl)methyl]-N-[1-[2-(2-pyrimidinyloxy)ethyl]-4-piperidinyl]-1H-benzimidazol-2-amine] has an ED50 [1] of 0.16 mg/kg and an ED50 [2, 3] of 0.63 mg/kg.
In the case of O=C(O)/C=C/C(=O)O.O=C(O)/C=C/C(=O)O.c1cnc(OCCN2CCC(Nc3nc4ccccc4n3Cc3ccco3)CC2)nc1 [Compound 83, 1-(2-furanylmethyl)-N-[1-[2-(2-pyrimidinyloxy)ethyl]-4-piperidinyl]-1H-benzimidazol-2-amine (E)-2-butenedioate (1:2)], the ED50 [1] was 0.08 mg/kg and the ED50 [2, 3] was 1.25 mg/kg.
Fc1ccc(Cn2c(NC3CCN(CCOCc4ccccn4)CC3)nc3ccccc32)cc1.O=C(O)/C=C/C(=O)O.O=C(O)/C=C/C(=O)O [Compound 84, 1-[(4-fluorophenyl)methyl]-N-[1-[2-(2-pyridinylmethoxy)ethyl]-4-piperidinyl]-1H-benzimidazol-2-amine (E)-2-butenedioate (1:2)] was tested, and the ED50 [1] was 0.08 mg/kg and the ED50 [2, 3] was 2.5 mg/kg.
Work on O.O=c1nc(NCCN2CCC(Nc3nc4ccccc4n3Cc3ccc(F)cc3)CC2)[nH]cc1Cc1ccc(Cl)cc1 [Compound 85, 5-[(4-chlorophenyl)methyl]-2-[[2-[4-[[1-[(4-fluorophenyl)methyl]-1H-benzimidazol-2-yl]amino]-1-piperidinyl]ethyl]amino]-4(1H)-pyrimidinone monohydrate] yielded an ED50 [1] of 1.25 mg/kg and an ED50 [2, 3] of 2.5 mg/kg.
